Details of series [1]: method as in PMID 23455672. The following applies: cited from earlier work.
Series [2] deals with ROS production on brain sections. The experiment in a line: In situ ROS production by DHE fluorescence on brain sections after iv injection. The following applies: brain sections harvested at 15 minutes after iv injection. Format: in vivo, mouse. The procedure: (§1) ROS production was measured using tissue homogenates by three complementary techniques: lucigenin (5 µmol/L)‐chemiluminescence (Molecular Devices); DHE (2 µmol/L) fluorescence on brain tissue sections, and brain tissue lipid peroxidation by malondialdehyde (MDA) assay as described previously. ^5 The specificity of detection of O2·‐ was confirmed by adding tiron (10 mmol/L), a non‐enzymatic O2·‐ scavenger. The enzymatic sources of O2·‐ production were identified using inhibitors targeting nitric oxide synthase (L‐N^G‐Nitro arginine methyl ester, L‐NAME, 100 μmol/L), the mitochondrial complex‐1 enzymes (rotenone, 50 μmol/L), xanthine oxidase (oxypurinol, 250 μmol/L), flavo‐proteins (diphenyleneiodonium, DPI, 20 μmol/L), or superoxide dismutase (SOD) (200 U/mL). The DHE fluorescence was captured using a Nikon fluorescence microscope (Eclipse Ti2‐E). The fluorescence intensity was quantified from at least three random images per section with three sections/per sample.

Series [3] in a line: LogBB calculation, Log (Cbrain/Cplasma). Format: in vivo, mouse. The protocol: LogBB of apocynin was calculated as described previously ^22 using the equation: LogBB = Log (Cbrain/Cplasma). We used the values from 1 to 30 minutes detected in both plasma and brain tissues for LogBB calculation since apocynin plasma concentration was fallen to ~10 ng/mL (limit of quantification) after 30 minutes of iv injection, n = 3 mice/per time point.

Series [4] deals with O2·‐ production in tissue homogenates. The series can be described thus: O2·- production in organ homogenates by lucigenin-chemiluminescence, HFD mouse model. The format is in vivo. Particulars: HFD 16 weeks, apocynin 5 mmol/L in drinking water, vs HFD. The procedure:
as §1, with “Apocynin was supplied in drinking water (5 mmol/L) for the treatment group. Body weights were measured weekly. Mice were sacrificed at 11 months of age and organs were harvested for further experiments. ROS” for “ROS”, “sample. […] Body weights were measured weekly. […] The body weights were recorded and organs were harvested.” for “sample.”

A short description of series [5]: Body weight in HFD-induced obesity and accelerated aging mouse model. Particulars: HFD 16 weeks, apocynin 5 mmol/L in drinking water, vs HFD without apocynin. Format: in vivo. The procedure: Apocynin was supplied in drinking water (5 mmol/L) for the treatment group. Body weights were measured weekly. Mice were sacrificed at 11 months of age and organs were harvested for further experiments. […] Male mice at 7 months of age were randomly assigned (n = 6/per group) to a HFD: 45% kcal fat, 20% kcal protein and 35% kcal carbohydrate (Special Diets Services), or a NCD: 9.3% kcal fat, 25.9% kcal protein, and 64.8% kcal carbohydrate (LabDiet Ltd) for 16 weeks. Apocynin was supplied in drinking water (5 mmol/L). Body weights were measured weekly. Mice (at 11 months) were fasted 8 hours before being sacrificed by an overdose of pentobarbital. The body weights were recorded and organs were harvested.

Series [6] can be described thus: Time-dependent distribution of apocynin in plasma, urine and tissues after iv bolus injection (HPLC-MS/MS). The format is in vivo, mouse. The procedure: All studies were performed in accordance with the protocols approved by the Home Office under the Animals (Scientific Procedures) Act 1986, UK. For the PKPD study, male CD1 mice (Charles River Ltd) at 12 weeks of age with a body weight range between 25 and 30 g were used for the study. Mice were fasted 12 hours before bolus iv injection of apocynin at 5 mg/kg body weight (dosing volume 5 mL/kg) via a lateral tail vein. Control mice were injected with vehicle (solvent of apocynin) at each time points. Four mice/per time points were sacrificed at 0, 1, 2.5, 5, 15, 30, 60 minutes and then at 3, 6, 12, and 24 hours after iv injection of apocynin. Blood samples were collected and centrifuged at 2000 g, 4°C for 10 minutes for plasma collection. Urine samples were collected from bladders. Tissues were harvested for further experiments.
The detection of apocynin in tissue sample was performed as described previously with some modifications. ^17 In brief, apocynin was detected using an Accela HPLC coupled to a linear ion‐trap tandem mass spectrometry (LTQ‐Orbitrap XL; Thermo‐Fisher Scientific) (HPLC‐MS/MS) in the negative ion mode. Phenacetin (500 ng/mL) was used as an internal standard in every vial. A reversed‐phase 50 × 2.1 mm ID, […], 175 Å pore C18 Hypersil Gold column (Thermo Scientific) was used with injection volume set at 5 µL for the separation of apocynin and phenacetin. Calibration curve used for PK analysis was constructed by spiking apocynin in mouse plasma using eight calibrators ranging from 1 to 10000 ng/mL with great reproducibility and R ^2 ≥ 0.996 for subsequent 5 separate experiments on different days. […] Limit of detection for apocynin was set up at signal to noise ratio ≥ 3, ^18 which is 1 ng/mL in our system. The limitation of quantification was set up at signal to noise ratio ≥ 10, which is 10 ng/mL in our system. Orbitrap component was used for the full scan spectra of apocynin and diapocynin.

[7] abbreviates: CD1 mice, iv bolus 5 mg/kg, 5 minutes, per tissue weight.

Where two headings read alike, the source gives them in different places.

As to `COc1cc(C(C)=O)ccc1O` [Apocynin, 4‐hydroxy‐3‐methoxyacetophenone], the pKa value in series [1] was 8.17. In addition, the “effect on DHE fluorescence (in situ ROS production)” value in series [2] is “inhibited effectively”. Further, the LogBB in series [3] (at 1 minute after iv injection) was −0.1. Besides, the LogBB at 30 min in series [3] (male, CD1, mouse, brain/plasma, 5 mg/kg, at 30 minutes after iv injection) is 1. Moreover, the “effect on HFD-induced ROS production / oxidative stress in brain, liver and heart” value in series [4] was “significant reductions”. In series [4] (listed as apocynin), the “effect on HFD-induced ROS production / oxidative stress in brain, liver and heart” value is “reduced significantly”. In addition, in series [5], the “effect on HFD-induced increase in body weight” value is “significantly reduced”. Moreover, the “time apocynin remained detectable in urine” value in series [6] (CD1 mice, iv bolus 5 mg/kg) is given as “up to 12 hours”. Moreover, the “plasma apocynin concentration (peak)” value in series [6] (CD1 mice, iv bolus 5 mg/kg, 1 minute after injection) is reported as 5494 ± 400 ng/mL. For the same compound, the “brain apocynin concentration (peak)” value in series [6] (CD1 mice, iv bolus 5 mg/kg, 1 minute, per tissue weight) stood at 4603 ± 208 ng/g. Besides, in series [6] (setting [7]), the “heart apocynin peak concentration” value is reported as 3161 ± 309 ng/g and the “liver apocynin peak concentration” value stood at 2853 ± 35 ng/g. Also, the “urine apocynin peak concentration” value in series [6] (CD1 mice, iv bolus 5 mg/kg, at 30 minutes) is listed as 20492 ng/mL. In addition, the “apocynin detection in urine” value in series [6] (CD1 mice, iv bolus 5 mg/kg, until 5 minutes after injection) is “undetectable”. Also, in series [6] (after iv injection), the “half-life in the brain compared with plasma” value was “longer” and the renal clearance result is recorded as “high”. The concentration at 30 min in series [6] (male, mouse, brain, CD1 mice, iv bolus 5 mg/kg, read-out: brain apocynin concentration) is 103 ± 4 ng/g. In series [6] (male, mouse, plasma, CD1 mice, iv bolus 5 mg/kg, 5 minutes), this compound came in with a concentration at 5 min of 3240 ± 1560 ng/mL. In addition, the concentration at 15 min in series [6] (male, mouse, plasma, CD1 mice, iv bolus 5 mg/kg, 15 minutes) was around 50 ng/mL. The concentration at 30 min in series [6] (male, mouse, plasma, CD1 mice, iv bolus 5 mg/kg, read-out: plasma apocynin concentration) is around 10 ng/mL. For the same compound, the concentration at 3 h in series [6] (male, mouse, urine, CD1 mice, iv bolus 5 mg/kg, 3 hours) is 230 ± 31 ng/mL.

The record behind these values is publication PMC7406636, “In vivo and in silico characterization of apocynin in reducing organ oxidative stress: A pharmacokinetic and pharmacodynamic study” (Pharmacology Research & Perspectives, 2020).
